Values quoted from earlier work as cited in patent US20020111657A1, “Method of controlling body temperature while reducing shivering” (priority 2001, published 2002).

System: shivering threshold
Details: patients at normal temperature warmed until sweating then cooled until shivering; Talke, et al., Anesthesiology 87(4):835-841, 1997

| SMILES | effect on shivering threshold |
| --- | --- |
| Clc1cccc(Cl)c1N=C1NCCN1 [clonidine] | able to lower the shivering threshold |
| Cc1cccc([C@H](C)c2cnc[nH]2)c1C [dexmedetomidine] | able to lower the shivering threshold |
